The target in one experiment is hOX1R (Homo sapiens, UniProt O43613). Put plainly: FLIPR Ca2+ flux assay, orexin-1 receptor antagonism. It counts as cell-based. The following applies: CHO cells; agonist 70 pM Ala-6,12 human orexin-A. (A change in cytosolic calcium serves as a functional read-out for many receptors and channels.)
The target in the next experiment is human orexin-2 receptor (Homo sapiens (Human), UniProt O43614). Put plainly: FLIPR Ca2+ flux assay, orexin-2 receptor antagonism. In kind it is cell-based. The settings on record: CHO cells; agonist 70 pM Ala-6,12 human orexin-A; read-out: hOX2R FLIPR IC50. The protocol:
In a typical experiment the OX1 and OX2 receptor antagonistic activity of the compounds of the present invention was determined in accordance with the following experimental method. For intracellular calcium measurements, Chinese hamster ovary (CHO) cells expressing the rat orexin-1 receptor or the human orexin-2 receptor, are grown in Iscove's modified DMEM containing 2 mM L-glutamine, […], 1% hypoxanthine-thymidine supplement, 100 U/ml penicillin, 100 μg/ml streptomycin and 10% heat-inactivated fetal calf serum (FCS). The cells are seeded at 20,000 cells/well into Becton-Dickinson black 384-well clear bottom sterile plates coated with poly-D-lysine. All reagents were from GIBCO-Invitrogen Corp. The seeded plates are incubated overnight at 37° C. and 5% CO2. Ala-6,12 human orexin-A as the agonist is prepared as a 1 mM stock solution in 1% bovine serum albumin (BSA) and diluted in assay buffer (HBSS containing 20 mM HEPES, 0.1% BSA and 2.5 mM probenecid, pH7.4) for use in the assay at a final concentration of 70 pM. Test compounds are prepared as 10 mM stock solution in DMSO, then diluted in 384-well plates, first in DMSO, then assay buffer. On the day of the assay, cells are washed 3 times with 100 μl assay buffer and then incubated for 60 min (37° C., 5% CO2) in 60 μl assay buffer containing 1 μM Fluo-4AM ester, 0.02% pluronic acid, and 1% BSA. The dye loading solution is then aspirated and cells are washed 3 times with 100 μl assay buffer. 30 μl of that same buffer is left in each well. Within the Fluorescent Imaging Plate Reader (FLIPR, Molecular Devices), test compounds are added to the plate in a volume of 25 μl, incubated for 5 min and finally 25 μl of agonist is added. Fluorescence is measured for each well at 1 second intervals for 5 minutes and the height of each fluorescence peak is compared to the height of the fluorescence peak induced by 70 pM Ala-6,12 orexin-A with buffer in place of antagonist. […] The intrinsic orexin receptor antagonist activity of a compound which may be used in the present invention may be determined by these assays.

Structures are written as SMILES.

Chain of human orexin-2 receptor (O43614 whole entry): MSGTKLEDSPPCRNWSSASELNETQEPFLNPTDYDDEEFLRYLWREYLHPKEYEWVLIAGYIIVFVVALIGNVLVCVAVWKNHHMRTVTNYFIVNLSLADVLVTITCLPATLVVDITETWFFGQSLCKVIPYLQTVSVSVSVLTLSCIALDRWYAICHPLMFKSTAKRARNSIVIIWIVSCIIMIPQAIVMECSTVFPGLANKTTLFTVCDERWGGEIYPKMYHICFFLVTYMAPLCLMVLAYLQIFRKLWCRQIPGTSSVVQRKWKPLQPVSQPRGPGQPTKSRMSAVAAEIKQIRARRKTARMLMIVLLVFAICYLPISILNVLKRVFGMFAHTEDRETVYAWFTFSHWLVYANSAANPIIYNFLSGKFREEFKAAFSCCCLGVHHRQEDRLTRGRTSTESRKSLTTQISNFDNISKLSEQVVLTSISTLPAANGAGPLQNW

One may read the IC50 as the midpoint of a concentration-inhibition curve. On to `COC(=O)c1c(OC)ccnc1O[C@@H]1CC[C@@H](C)N(C(=O)c2ccccc2-n2nccn2)C1` [Example 1, Methyl 4-methoxy-2-{[(3R,6R)-6-methyl-1-{[2-(2H-1,2,3-triazol-2-yl)phenyl]carbonyl}piperidin-3-yl]oxy}pyridine-3-carboxylate], for which the values for the half-maximal inhibitory concentration (IC50) on hOX1R and on human orexin-2 receptor were 1340 nM and 33 nM, respectively.

With `COC(=O)c1c(OC)ccnc1O[C@@H]1CC[C@@H](C)N(C(=O)c2cccc(F)c2-n2nccn2)C1` [Example 2, Methyl 2-{[(3R,6R)-1-{[3-fluoro-2-(2H-1,2,3-triazol-2-yl)phenyl]carbonyl}-6-methylpiperidin-3-yl]oxy}-4-methoxypyridine-3-carboxylate], the 50% inhibitory concentration (IC50) worked out at 2900 nM at hOX1R and 37 nM at human orexin-2 receptor.

Turning to `COC(=O)c1c(OC)ccnc1O[C@@H]1CC[C@@H](C)N(C(=O)c2ccc(Cl)cc2-n2nccn2)C1` [Example 3], the IC50 on hOX1R is 1420 nM; at human orexin-2 receptor, 33.6 nM.

For `COC(=O)c1c(OC)ccnc1O[C@@H]1CC[C@@H](C)N(C(=O)c2ccc(F)cc2-n2nccn2)C1` [Example 4, methyl 2-{[(3R,6R)-1-{[4-fluoro-2-(2H-1,2,3-triazol-2-yl)phenyl]carbonyl}-6-methylpiperidin-3-yl]oxy}-4-methoxypyridine-3-carboxylate], the IC50 at hOX1R was 3200 nM; on human orexin-2 receptor it was 764 nM.

For `COC(=O)c1c(OC)ccnc1O[C@@H]1CC[C@@H](C)N(C(=O)c2ccc(F)cc2-c2nc(C)no2)C1` [Example 5, methyl 2-{[(3R,6R)-1-{[4-fluoro-2-(3-methyl-1,2,4-oxadiazol-5-yl)phenyl]carbonyl}-6-methylpiperidin-3-yl]oxy}-4-methoxypyridine-3-carboxylate], the IC50 at hOX1R came out at 3100 nM; at human orexin-2 receptor, 52 nM.

On to `COC(=O)c1c(OC)ccnc1O[C@@H]1CC[C@@H](C)N(C(=O)c2c(F)cccc2-n2nccn2)C1` [Example 6, methyl 2-{[(3R,6R)-1-{[2-fluoro-6-(2H-1,2,3-triazol-2-yl)phenyl]carbonyl}-6-methylpiperidin-3-yl]oxy}-4-methoxypyridine-3-carboxylate], for which the IC50 at hOX1R was found to be 2310 nM; on human orexin-2 receptor, 82.9 nM.

On to `COC(=O)c1c(OC)ccnc1O[C@@H]1CC[C@@H](C)N(C(=O)c2cc(F)ccc2-n2nccn2)C1` [Example 7, methyl 2-{[(3R,6R)-1-{[5-fluoro-2-(2H-1,2,3-triazol-2-yl)phenyl]carbonyl}-6-methylpiperidin-3-yl]oxy}-4-methoxypyridine-3-carboxylate], for which the half-maximal inhibitory concentration (IC50) turned out to be 1460 nM on hOX1R and 27.6 nM at human orexin-2 receptor.

Take `COC(=O)c1c(OC)ccnc1O[C@@H]1CC[C@@H](C)N(C(=O)c2c(F)cccc2-c2noc(C)n2)C1` [Example 8, methyl 2-{[(3R,6R)-1-{[2-fluoro-6-(5-methyl-1,2,4-oxadiazol-3-yl)phenyl]carbonyl}-6-methylpiperidin-3-yl]oxy}-4-methoxypyridine-3-carboxylate]: the IC50 at hOX1R is 10000 nM; on human orexin-2 receptor it was 71.1 nM.

For `COC(=O)c1c(OC)ccnc1O[C@@H]1CC[C@@H](C)N(C(=O)c2cc(F)ccc2-c2noc(C)n2)C1` [Example 9], the IC50 at hOX1R came out at 1500 nM; at human orexin-2 receptor, 36.7 nM.

With `COC(=O)c1c(OC)ccnc1O[C@@H]1CC[C@@H](C)N(C(=O)c2ccc(F)cc2-c2noc(C)n2)C1` [Example 10, methyl 2-{[(3R,6R)-1-{[4-fluoro-2-(5-methyl-1,2,4-oxadiazol-3-yl)phenyl]carbonyl}-6-methylpiperidin-3-yl]oxy}-4-methoxypyridine-3-carboxylate], the IC50 worked out at 10000 nM at hOX1R and 58.7 nM on human orexin-2 receptor.

Consider `COC(=O)c1c(OC)ccnc1O[C@@H]1CC[C@@H](C)N(C(=O)c2cccc(F)c2-c2noc(C)n2)C1` [Example 11, methyl 2-{[(3R,6R)-1-{[3-fluoro-2-(5-methyl-1,2,4-oxadiazol-3-yl)phenyl]carbonyl}-6-methylpiperidin-3-yl]oxy}-4-methoxypyridine-3-carboxylate], for which the results for the IC50 at hOX1R and on human orexin-2 receptor were 2270 nM and 31.8 nM, respectively.

Take `COC(=O)c1c(OC)ccnc1O[C@@H]1CC[C@@H](C)N(C(=O)c2c(F)cccc2-c2nc(C)no2)C1` [Example 12, methyl 2-{[(3R,6R)-1-{[2-fluoro-6-(3-methyl-1,2,4-oxadiazol-5-yl)phenyl]carbonyl}-6-methylpiperidin-3-yl]oxy}-4-methoxypyridine-3-carboxylate]: the IC50 on hOX1R was determined as 4470 nM.

In the case of `COC(=O)c1c(OC)ccnc1O[C@@H]1CC[C@@H](C)N(C(=O)c2cc(F)ccc2-c2nc(C)no2)C1` [Example 13, methyl 2-{[(3R,6R)-1-{[5-fluoro-2-(3-methyl-1,2,4-oxadiazol-5-yl)phenyl]carbonyl}-6-methylpiperidin-3-yl]oxy}-4-methoxypyridine-3-carboxylate], the IC50 on hOX1R worked out at 1160 nM; on human orexin-2 receptor, 34.6 nM.

Regarding `COC(=O)c1c(OC)ccnc1O[C@@H]1CC[C@@H](C)N(C(=O)c2cccc(C)c2-n2nccn2)C1` [Example 14, methyl 4-methoxy-2-{[(3R,6R)-6-methyl-1-{[3-methyl-2-(2H-1,2,3-triazol-2-yl)phenyl]carbonyl}piperidin-3-yl]oxy}pyridine-3-carboxylate], the IC50 at hOX1R worked out at 777 nM; at human orexin-2 receptor it was 37.9 nM.

On to `COC(=O)c1c(OC)ccnc1O[C@@H]1CC[C@@H](C)N(C(=O)c2ccc(OC)cc2-n2nccn2)C1` [Example 15, methyl 4-methoxy-2-{[(3R,6R)-1-{[4-methoxy-2-(2H-1,2,3-triazol-2-yl)phenyl]carbonyl}-6-methylpiperidin-3-yl]oxy}pyridine-3-carboxylate], for which the IC50 on hOX1R came out at 10000 nM; on human orexin-2 receptor, 51 nM.

In the case of `COC(=O)c1c(OC)ccnc1O[C@@H]1CC[C@@H](C)N(C(=O)c2ccc(OC)nc2-n2nccn2)C1` [Example 17, methyl 4-methoxy-2-{[(3R,6R)-1-{[6-methoxy-2-(2H-1,2,3-triazol-2-yl)pyridin-3-yl]carbonyl}-6-methylpiperidin-3-yl]oxy}pyridine-3-carboxylate], the IC50 at hOX1R is 10000 nM; on human orexin-2 receptor it was 52 nM.

Turning to `COC(=O)c1c(OC)ccnc1O[C@@H]1CC[C@@H](C)N(C(=O)c2cccc(F)c2-c2nc(C)no2)C1` [Example 18, methyl 2-{[(3R,6R)-1-{[3-fluoro-2-(3-methyl-1,2,4-oxadiazol-5-yl)phenyl]carbonyl}-6-methylpiperidin-3-yl]oxy}-4-methoxypyridine-3-carboxylate], the IC50 on hOX1R is 932 nM; at human orexin-2 receptor, 39.5 nM.

`COC(=O)c1c(OC)ccnc1O[C@@H]1CC[C@@H](C)N(C(=O)c2ccccc2-c2ncccn2)C1` [Example 19]: the IC50 at hOX1R worked out at 1870 nM; on human orexin-2 receptor, 114 nM.

As to `COC(=O)c1c(OC)ccnc1O[C@@H]1CC[C@@H](C)N(C(=O)c2ccc(F)cc2-c2ncccn2)C1` [Example 21, methyl 2-({(3R,6R)-1-[(4-fluoro-2-pyrimidin-2-ylphenyl)carbonyl]-6-methylpiperidin-3-yl}oxy)-4-methoxypyridine-3-carboxylate], the values for the 50% inhibitory concentration (IC50) on hOX1R and at human orexin-2 receptor were 1460 nM and 71.2 nM, respectively.

`COC(=O)c1c(OC)ccnc1O[C@@H]1CC[C@@H](C)N(C(=O)c2cccc(F)c2-c2ncccn2)C1` [Example 22, methyl 2-({(3R,6R)-1-[(3-fluoro-2-pyrimidin-2-ylphenyl)carbonyl]-6-methylpiperidin-3-yl}oxy)-4-methoxypyridine-3-carboxylate]: the IC50 came out at 3780 nM on hOX1R and 117 nM on human orexin-2 receptor.

Values taken from US9975876B2, “2-pyridyloxy-3-ester-4-ether orexin receptor antagonists” (MERCK SHARP & DOHME CORP., priority 2013, dated 2018).
